Where two headings read alike, the source gives them in different places.
Columns and labels:
human TRPV3 = target: T1, human TRPV3 (Homo sapiens, UniProt Q8NET8); test: In vitro antagonism of recombinant human TRPV3 activation (FLIPR Tetra calcium assay, 2-APB as agonist); type: cell-based; conditions: HEK293 cells stably expressing human TRPV3, 2-APB 80 μM
T1 construct: expressed in transfected cells
T1 sequence (Q8NET8 1-790): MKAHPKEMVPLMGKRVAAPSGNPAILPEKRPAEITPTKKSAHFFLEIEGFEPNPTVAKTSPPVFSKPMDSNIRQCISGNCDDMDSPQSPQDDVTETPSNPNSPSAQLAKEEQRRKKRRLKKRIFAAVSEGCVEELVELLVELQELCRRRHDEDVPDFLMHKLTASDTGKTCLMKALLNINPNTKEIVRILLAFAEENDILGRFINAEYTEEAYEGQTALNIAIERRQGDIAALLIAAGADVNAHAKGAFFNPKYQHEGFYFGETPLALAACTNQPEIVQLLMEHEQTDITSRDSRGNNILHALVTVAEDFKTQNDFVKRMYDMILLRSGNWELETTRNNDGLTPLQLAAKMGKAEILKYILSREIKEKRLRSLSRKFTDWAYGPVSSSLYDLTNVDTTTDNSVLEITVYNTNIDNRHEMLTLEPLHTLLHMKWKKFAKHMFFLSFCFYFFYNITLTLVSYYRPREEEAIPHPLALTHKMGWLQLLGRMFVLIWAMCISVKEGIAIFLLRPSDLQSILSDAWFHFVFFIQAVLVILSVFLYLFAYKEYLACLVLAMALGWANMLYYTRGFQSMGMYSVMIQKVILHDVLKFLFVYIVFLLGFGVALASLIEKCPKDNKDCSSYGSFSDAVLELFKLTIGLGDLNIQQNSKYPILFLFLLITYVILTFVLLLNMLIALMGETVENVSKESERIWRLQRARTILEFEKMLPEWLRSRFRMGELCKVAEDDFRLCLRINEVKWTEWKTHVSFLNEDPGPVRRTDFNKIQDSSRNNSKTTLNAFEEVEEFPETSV
How it was run: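 HEK293 cells stably expressing human TRPV3, loaded with Calcium-4 dye for 90-120 min; compound added 3 min before 2-APB at 80 μM (its EC80). Fluorescence (max minus min) over 10 min expressed as % of maximal 2-APB response without antagonist; IC50 mostly averaged from n≧2 runs.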

[1] = In vitro human microsomal stability assay; type: in vitro ADME
How it was run: (§1)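 Compounds were incubated at 37 °C with Sprague-Dawley rat liver microsomes (rat assay) or human liver microsomes (human assay) to measure metabolic stability. NADPH was added, including to the time-zero samples.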

[2] = In vitro rat microsomal stability assay; type: in vitro ADME, rat (Sprague-Dawley)
How it was run: as §1

[3] = range class, read-out: IC50 (reported range)
[4] = Sprague-Dawley, rat, 0.5 h, 0.5 μM, pH 7.4
[5] = 0.5 μM substrate, 0.25 mg/mL microsomal protein, pH 7.4, 37° C., NADPH, 30 minutes

Row | IC50 (human TRPV3; [3]) [nM] | HUMAN MICROSOMAL STABILITY (% REMAINING AFTER 30 MINUTES) ([1]; human, 0.5 h, 0.5 μM, pH 7.4) [%] | RAT MICROSOMAL STABILITY (% REMAINING AFTER 30 MINUTES) [2, 4] [%] | Compound | IC50 (human TRPV3; mostly average of n≧2, read-out: IC50 (actual measured value, shown parenthetically)) [nM] | HUMAN MICROSOMAL STABILITY (% REMAINING AFTER 30 MINUTES) [1, 5] [%] | RAT MICROSOMAL STABILITY (% REMAINING AFTER 30 MINUTES) [2, 5] [%]
1 | > 20000 | >85 | 71 | OC1CC(c2cc(C(F)(F)F)ccn2)(C(O)c2ccccn2)C1 (single isomer, unassigned) [Example 290] |  |  | 
2 | 5100 to 20000 | 81 | 72 | OC1CC(c2ccc(OC(F)(F)F)cc2)(C(O)c2ccccn2)C1 [Example 132, (trans)-3-[(S)-hydroxy(pyridin-2-yl)methyl]-3-[4-(trifluoromethoxy)phenyl]-cyclobutanol] |  |  | 
3 | 1100 to 5000 | 45 | 12 | OC(c1ccccn1)C1(c2ccc(Cl)c(Cl)c2)CCOCC1 (stereo not shown) [Example 59, [4-(3,4-dichlorophenyl)tetrahydro-2H-pyran-4-yl](pyridin-2-yl)methanol] |  |  | 
4 | 501 to 1000 | 50 | 38 | O[C@H](c1ccccn1)C1(c2ccnc(C(F)(F)F)c2)CCC1 [Example 240, (S)-pyridin-2-yl{1-[2-(trifluoromethyl)pyridin-4-yl]cyclobutyl}methanol] |  |  | 
5 | 501 to 1000 | >85 | 69 | OC1CC(c2ccc(Cl)c(Cl)c2)(C(O)c2ccccn2)C1 (single isomer, unassigned) [Example 119] |  |  | 
6 | 1100 to 5000 | 0.01 | <0.01 | OC(c1ccccn1)C1(C2=CCCC(C(F)(F)F)C2)CCC1 (stereo not shown) [Example 261, pyridin-2-yl{1-[5-(trifluoromethyl)cyclohex-1-en-1-yl]cyclobutyl}methanol] |  |  | 
7 | 5100 to 20000 | 73 | >85 | OC1CC(c2ccc(C(F)(F)F)cc2)(C(O)c2ccccn2)C1 [Example 201, trans-3-[(S)-hydroxy(pyridin-2-yl)methyl]-3-[4-(trifluoromethyl)phenyl]-cyclobutanol] |  |  | 
8 | 1100 to 5000 | 58 | 47 | OC(c1ccccn1)C1(c2ccc(OC(F)(F)F)cc2)CCOCC1 (stereo not shown) [Example 67, pyridin-2-yl{4-[4-(trifluoromethoxy)phenyl]tetrahydro-2H-pyran-4-yl}-methanol] |  |  | 
9 | 1100 to 5000 | 73 | 0.012 | OC(c1ccccn1)C1(c2ccccc2F)CCCO1 (stereo not drawn) [Example 103, (syn)-[2-(2-fluorophenyl)tetrahydrofuran-2-yl](pyridin-2-yl)methanol] |  |  | 
10 | 50 to 500 | 72 | 73 | OC1CC(c2ccc(F)c(Cl)c2)([C@H](O)c2ccccn2)C1 (stereo partly drawn) [Example 276, 3-(3-chloro-4-fluorophenyl)-3-[(S)-hydroxy(pyridin-2-yl)methyl]-cyclobutanol] |  |  | 
11 | 1100 to 5000 | 31 | 23 | OC(c1ccccn1)C1(c2cccc(OC(F)(F)F)c2)CCOCC1 (stereo not shown) [Example 66, pyridin-2-yl{4-[3-(trifluoromethoxy)phenyl]tetrahydro-2H-pyran-4-yl}-methanol] |  |  | 
12 | 50 to 500 | 6.3 | 1.0 | O[C@H](c1ccccn1)C1(c2ccc(Cl)c(Cl)c2)CCC1 [Example 26, (S)-[1-(3,4-dichlorophenyl)cyclobutyl](pyridin-2-yl)methanol] |  |  | 
13 | 50 to 500 | 42 | 65 | OC1CC(c2cccc(OC(F)(F)F)c2)(C(O)c2ccccn2)C1 [Example 273, trans-3-[(S)-hydroxy(pyridin-2-yl)methyl]-3-[3-(trifluoromethoxy)phenyl]-cyclobutanol] |  |  | 
14 | 501 to 1000 | 0.12 | 0.69 | OC(c1ccccn1)C1(c2cccc(Oc3ccccc3)c2)CCC1 (stereo not shown) [Example 23, [1-(3-phenoxyphenyl)cyclobutyl](pyridin-2-yl)methanol] |  |  | 
15 | 1100 to 5000 | >85 | >85 | OC1CC(c2ccc(Cl)c(Cl)c2)(C(O)c2ncccn2)C1 [Example 312, (trans)-3-(3,4-dichlorophenyl)-3-((S)-hydroxy(pyrimidin-2-yl)methyl)-cyclobutanol] |  |  | 
16 | 5100 to 20000 | 42 | 0.040 | OC(c1ccccn1)C1(c2cccc(Cl)c2)CCCO1 (stereo not drawn) [Example 105, (syn)-[2-(3-chlorophenyl)tetrahydrofuran-2-yl](pyridin-2-yl)methanol] |  |  | 
17 | 1100 to 5000 | 57 | 72 | O=C1CC(c2cccc(C(F)(F)F)c2)(C(O)c2ccccn2)C1 (stereo not shown) [Example 245, 3-[hydroxy(pyridin-2-yl)methyl]-3-[3-(trifluoromethyl)phenyl]cyclobutanone] |  |  | 
18 | 1100 to 5000 | >85 | 72 | NC1CCC1C(O)C1(c2cccc(C(F)(F)F)c2)CCC1 (stereo not shown) [Example 213, (2-aminocyclobutyl){1-[3-(trifluoromethyl)phenyl]cyclobutyl}methanol] |  |  | 
19 | 5100 to 20000 | 51 | 1.1 | Nc1cccnc1C(O)C1(c2ccc(C(F)(F)F)cc2)CCC1 (stereo not shown) [Example 127, (3-aminopyridin-2-yl){1-[4-(trifluoromethyl)phenyl]cyclobutyl}methanol] |  |  | 
20 | 50 to 500 | 3.9 | 1.6 | OC(c1ccccn1)C1(c2cccc(C(F)(F)F)c2)CCCO1 (stereo not drawn) [Example 106, (anti)-pyridin-2-yl{2-[3-(trifluoromethyl)phenyl]tetrahydrofuran-2-yl}-methanol] |  |  | 
21 | 5100 to 20000 | 11 | 0.23 | CC(c1ccc(F)cc1)C1(C(O)c2ccccn2)CCC1 (stereo not shown) [Example 46, {1-[1-(4-fluorophenyl)ethyl]cyclobutyl}(pyridin-2-yl)methanol] |  |  | 
22 | 50 to 500 | 0.72 | 0.80 | OC(c1ccccn1)C1(c2cccc(OC(F)(F)F)c2)CCC1 (stereo not shown) [Example 11, pyridin-2-yl{1-[3-(trifluoromethoxy)phenyl]cyclobutyl}methanol] |  |  | 
23 | 5100 to 20000 | 5.6 | <0.01 | OC(C1CCc2cccnc21)C1(c2ccc(Cl)c(Cl)c2)CCC1 (stereo not drawn) [Example 168, (syn)-[1-(3,4-dichlorophenyl)cyclobutyl][6,7-dihydro-5H-cyclopenta[b]-pyridin-7-yl]methanol] |  |  | 
24 | 50 to 500 | 2.7 | 0.23 | OC(c1ccccn1)C1(c2cccc(OC(F)(F)F)c2)CCCO1 (stereo not drawn) [Example 92, (anti)-pyridin-2-yl{2-[3-(trifluoromethoxy)phenyl]tetrahydrofuran-2-yl}-methanol] |  |  | 
25 | 1100 to 5000 | 0.12 | 0.18 | Cc1ccc(C2(C(O)c3ccccn3)CCC2)cc1 (stereo not shown) [Example 9, [1-(4-methylphenyl)cyclobutyl](pyridin-2-yl)methanol] |  |  | 

Row | Compound | IC50 (human TRPV3; [3]) [nM] | HUMAN MICROSOMAL STABILITY (% REMAINING AFTER 30 MINUTES) ([1]; human, 0.5 h, 0.5 μM, pH 7.4) [%] | RAT MICROSOMAL STABILITY (% REMAINING AFTER 30 MINUTES) [2, 4] [%] | IC50 (human TRPV3; mostly average of n≧2, read-out: IC50 (actual measured value, shown parenthetically)) [nM] | HUMAN MICROSOMAL STABILITY (% REMAINING AFTER 30 MINUTES) [1, 5] [%] | RAT MICROSOMAL STABILITY (% REMAINING AFTER 30 MINUTES) [2, 5] [%]
26 | pyridin-2-yl{1-[5-(trifluoromethyl)pyridin-3-yl]cyclobutyl}methanol [Example 110] | 50 to 500 |  |  | 500 | 8.0 | 2.8
27 | OC(c1ccccn1)C1(c2cccc(OC(F)(F)F)c2)CCNCC1 (stereo not shown) [Example 148, pyridin-2-yl{4-[3-(trifluoromethoxy)phenyl]piperidin-4-yl}methanol] | 1100 to 5000 |  |  |  | >85 | 53
